From publication PMC3270411 (Chemistry & biology, 2012)

Legend:
ABL,ARG = experiment: KiNativ cellular kinase profiling; type: cell-based; details: A375 cells, 1 μM, 3 hours, labeling site Lys1
ZAK = ZAK (Homo sapiens, UniProt Q9NYL2); experiment: KiNativ cellular kinase profiling; type: cell-based; details: for inhibition at 1 µM: A-375, read-out: Percent inhibition of kinase labeling by ATP-biotin; for Percent inhibition of kinase labeling by ATP-biotin: A375 cells, 1 μM, 3 hours, ZAK, labeling site Lys1
IRAK1 = IRAK1 (Homo sapiens, UniProt P51617); experiment: KiNativ cellular kinase profiling; type: cell-based; details: for inhibition at 1 µM: A-375, read-out: Percent inhibition of kinase labeling by ATP-biotin; for Percent inhibition of kinase labeling by ATP-biotin: A375 cells, 1 μM, 3 hours, IRAK1, labeling site Lys2
MAP2K1,MAP2K2 = experiment: KiNativ cellular kinase profiling; type: cell-based; details: A375 cells, 1 μM, 3 hours; MAP2K1,MAP2K2, labeling site Lys2
PFTAIRE1 = PFTAIRE1 (Homo sapiens, UniProt O94921); experiment: KiNativ cellular kinase profiling; type: cell-based; details: for inhibition at 1 µM: A-375, read-out: Percent inhibition of kinase labeling by ATP-biotin; for Percent inhibition of kinase labeling by ATP-biotin: A375 cells, 1 μM, 3 hours, PFTAIRE1, labeling site Lys1
PKD1 = molecular target: T1, PKD1 (Homo sapiens, UniProt Q15139); experiment: KiNativ cellular kinase profiling; type: cell-based; details: for inhibition at 1 µM: A-375, read-out: Percent inhibition of kinase labeling by ATP-biotin; for Percent inhibition of kinase labeling by ATP-biotin: A375 cells, 1 μM, 3 hours, PKD1, labeling site Lys1
T1 sequence (Q15139 1-912): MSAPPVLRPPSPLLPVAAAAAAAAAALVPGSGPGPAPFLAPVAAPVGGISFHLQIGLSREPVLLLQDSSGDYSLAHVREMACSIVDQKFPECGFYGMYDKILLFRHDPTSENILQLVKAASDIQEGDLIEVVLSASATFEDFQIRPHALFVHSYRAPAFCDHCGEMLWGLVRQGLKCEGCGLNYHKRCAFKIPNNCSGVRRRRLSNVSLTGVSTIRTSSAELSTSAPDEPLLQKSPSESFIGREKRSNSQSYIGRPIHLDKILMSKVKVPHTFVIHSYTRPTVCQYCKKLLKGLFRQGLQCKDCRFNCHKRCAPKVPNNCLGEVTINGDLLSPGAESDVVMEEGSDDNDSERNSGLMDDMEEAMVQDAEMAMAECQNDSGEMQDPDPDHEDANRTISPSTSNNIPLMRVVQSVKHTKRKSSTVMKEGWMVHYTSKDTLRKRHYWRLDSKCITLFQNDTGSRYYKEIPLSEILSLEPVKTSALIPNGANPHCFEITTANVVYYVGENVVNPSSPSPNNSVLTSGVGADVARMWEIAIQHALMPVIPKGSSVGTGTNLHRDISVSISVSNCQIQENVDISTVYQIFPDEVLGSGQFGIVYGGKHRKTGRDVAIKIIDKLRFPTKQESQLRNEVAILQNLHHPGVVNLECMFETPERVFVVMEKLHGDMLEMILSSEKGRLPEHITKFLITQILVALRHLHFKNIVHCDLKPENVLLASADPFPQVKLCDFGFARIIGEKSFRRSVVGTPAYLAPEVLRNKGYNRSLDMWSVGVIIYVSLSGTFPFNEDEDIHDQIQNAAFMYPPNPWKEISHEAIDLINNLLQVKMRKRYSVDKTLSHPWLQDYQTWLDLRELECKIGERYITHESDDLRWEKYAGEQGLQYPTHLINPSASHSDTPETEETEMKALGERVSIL

KIT(V559D) = KIT(V559D) (Homo sapiens, UniProt P10721, V559D); experiment: KinomeScan dissociation constant; type: binding
JNK1,JNK2,JNK3 = experiment: KiNativ cellular kinase profiling; type: cell-based; details: A375 cells, 1 μM, 3 hours; JNK1,JNK2,JNK3, labeling site Lys2
IKKb = molecular target: T2, IKKb (Homo sapiens, UniProt O14920); experiment: KiNativ cellular kinase profiling; type: cell-based; details: for inhibition at 1 µM: A-375, read-out: Percent inhibition of kinase labeling by ATP-biotin; for Percent inhibition of kinase labeling by ATP-biotin: A375 cells, 1 μM, 3 hours, IKKb, labeling site Lys2
T2 sequence (O14920 1-756): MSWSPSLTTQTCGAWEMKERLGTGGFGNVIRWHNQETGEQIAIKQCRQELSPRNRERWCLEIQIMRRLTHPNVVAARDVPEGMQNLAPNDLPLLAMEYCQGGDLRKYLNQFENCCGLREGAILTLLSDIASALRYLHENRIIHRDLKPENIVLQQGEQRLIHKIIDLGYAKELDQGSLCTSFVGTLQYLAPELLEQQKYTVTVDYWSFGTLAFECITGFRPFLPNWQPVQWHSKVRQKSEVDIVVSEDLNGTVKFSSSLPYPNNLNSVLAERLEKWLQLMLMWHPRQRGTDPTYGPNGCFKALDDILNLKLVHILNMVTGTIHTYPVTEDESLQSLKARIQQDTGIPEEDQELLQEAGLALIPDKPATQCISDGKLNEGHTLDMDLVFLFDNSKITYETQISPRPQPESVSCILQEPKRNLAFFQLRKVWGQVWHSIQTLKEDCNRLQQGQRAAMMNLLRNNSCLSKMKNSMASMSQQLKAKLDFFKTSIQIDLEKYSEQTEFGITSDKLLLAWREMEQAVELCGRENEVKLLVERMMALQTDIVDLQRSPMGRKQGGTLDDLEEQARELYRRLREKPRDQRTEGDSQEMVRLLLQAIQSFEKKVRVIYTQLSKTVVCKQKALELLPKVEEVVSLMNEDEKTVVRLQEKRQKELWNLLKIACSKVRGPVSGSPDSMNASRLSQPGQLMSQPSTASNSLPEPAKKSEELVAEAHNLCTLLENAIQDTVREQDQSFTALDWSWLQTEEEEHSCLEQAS

CDK9 = CDK9 (Homo sapiens, UniProt P50750); experiment: KiNativ cellular kinase profiling; type: cell-based; details: for inhibition at 1 µM: A-375, read-out: Percent inhibition of kinase labeling by ATP-biotin; for Percent inhibition of kinase labeling by ATP-biotin: A375 cells, 1 μM, 3 hours, CDK9, labeling site Lys2
PHKg2 = molecular target: T3, PHKg2 (Homo sapiens, UniProt P15735); experiment: KiNativ cellular kinase profiling; type: cell-based; details: for inhibition at 1 µM: A-375, read-out: Percent inhibition of kinase labeling by ATP-biotin; for Percent inhibition of kinase labeling by ATP-biotin: A375 cells, 1 μM, 3 hours, PHKg2, labeling site Lys1
T3 sequence (P15735 1-406): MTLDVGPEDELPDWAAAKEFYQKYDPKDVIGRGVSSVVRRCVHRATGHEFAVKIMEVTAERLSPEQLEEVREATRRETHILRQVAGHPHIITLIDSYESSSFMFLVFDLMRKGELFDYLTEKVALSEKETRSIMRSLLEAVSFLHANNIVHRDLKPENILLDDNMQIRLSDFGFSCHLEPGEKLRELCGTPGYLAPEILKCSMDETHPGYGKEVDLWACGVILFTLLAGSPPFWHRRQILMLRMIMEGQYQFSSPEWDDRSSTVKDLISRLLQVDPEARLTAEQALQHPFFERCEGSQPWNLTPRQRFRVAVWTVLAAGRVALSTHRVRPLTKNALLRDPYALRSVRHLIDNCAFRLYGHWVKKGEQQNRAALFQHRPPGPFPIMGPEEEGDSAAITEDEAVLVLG

MARK3 = MARK3 (Homo sapiens, UniProt P27448); experiment: KiNativ cellular kinase profiling; type: cell-based; details: for inhibition at 1 µM: A-375, read-out: Percent inhibition of kinase labeling by ATP-biotin; for Percent inhibition of kinase labeling by ATP-biotin: A375 cells, 1 μM, 3 hours, MARK3, labeling site Lys1
Sequence of MARK3 (P27448 whole entry): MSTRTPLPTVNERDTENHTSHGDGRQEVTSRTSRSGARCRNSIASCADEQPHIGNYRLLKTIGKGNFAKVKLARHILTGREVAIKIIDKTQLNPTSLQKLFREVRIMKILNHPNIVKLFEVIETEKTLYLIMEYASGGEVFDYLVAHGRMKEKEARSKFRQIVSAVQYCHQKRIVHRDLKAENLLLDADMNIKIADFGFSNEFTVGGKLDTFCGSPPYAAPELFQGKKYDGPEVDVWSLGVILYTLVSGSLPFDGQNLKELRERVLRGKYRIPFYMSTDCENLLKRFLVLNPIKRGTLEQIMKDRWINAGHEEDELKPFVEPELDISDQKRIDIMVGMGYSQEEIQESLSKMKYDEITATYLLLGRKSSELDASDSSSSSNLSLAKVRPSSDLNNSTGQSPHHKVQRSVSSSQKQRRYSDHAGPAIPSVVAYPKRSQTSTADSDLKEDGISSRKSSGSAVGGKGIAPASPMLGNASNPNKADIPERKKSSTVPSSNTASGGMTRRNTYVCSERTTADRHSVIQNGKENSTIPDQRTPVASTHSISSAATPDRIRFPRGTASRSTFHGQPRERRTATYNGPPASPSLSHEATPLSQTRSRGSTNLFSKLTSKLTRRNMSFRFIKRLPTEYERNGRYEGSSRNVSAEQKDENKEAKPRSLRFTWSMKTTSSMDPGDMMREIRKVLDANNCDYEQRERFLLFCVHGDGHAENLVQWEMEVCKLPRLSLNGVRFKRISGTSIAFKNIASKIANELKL

Sequence of CDK9 (P50750 whole entry): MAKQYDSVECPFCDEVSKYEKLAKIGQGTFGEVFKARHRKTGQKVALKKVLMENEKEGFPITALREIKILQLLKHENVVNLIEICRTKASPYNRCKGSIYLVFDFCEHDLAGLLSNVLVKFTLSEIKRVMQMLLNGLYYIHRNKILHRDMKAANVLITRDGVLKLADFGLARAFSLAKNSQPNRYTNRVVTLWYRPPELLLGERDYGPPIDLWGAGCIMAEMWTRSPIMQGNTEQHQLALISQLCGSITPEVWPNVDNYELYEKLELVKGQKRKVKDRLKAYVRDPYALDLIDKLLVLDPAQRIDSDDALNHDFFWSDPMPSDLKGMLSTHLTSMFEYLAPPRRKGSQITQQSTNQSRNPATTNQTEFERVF
Sequence of CDK9 (O60563 whole entry partner): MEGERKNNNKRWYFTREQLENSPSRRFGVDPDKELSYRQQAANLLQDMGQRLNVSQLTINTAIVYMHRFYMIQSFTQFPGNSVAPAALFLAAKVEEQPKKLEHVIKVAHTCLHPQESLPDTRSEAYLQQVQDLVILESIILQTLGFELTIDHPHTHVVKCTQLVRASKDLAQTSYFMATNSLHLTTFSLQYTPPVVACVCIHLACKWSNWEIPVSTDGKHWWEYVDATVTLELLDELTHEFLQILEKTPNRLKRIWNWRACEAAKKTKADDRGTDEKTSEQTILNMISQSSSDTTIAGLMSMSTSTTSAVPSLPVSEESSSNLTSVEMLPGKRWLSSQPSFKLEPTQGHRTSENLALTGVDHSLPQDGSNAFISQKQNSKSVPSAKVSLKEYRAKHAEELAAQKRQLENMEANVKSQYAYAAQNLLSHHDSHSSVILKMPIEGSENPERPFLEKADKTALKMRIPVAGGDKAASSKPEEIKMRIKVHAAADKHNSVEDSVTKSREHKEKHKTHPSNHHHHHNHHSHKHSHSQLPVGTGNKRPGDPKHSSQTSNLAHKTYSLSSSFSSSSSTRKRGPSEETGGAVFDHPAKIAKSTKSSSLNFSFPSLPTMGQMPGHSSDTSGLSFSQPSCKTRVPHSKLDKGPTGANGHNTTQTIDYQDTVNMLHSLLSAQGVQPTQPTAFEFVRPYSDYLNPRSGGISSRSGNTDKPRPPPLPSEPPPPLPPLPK
Sequence of KIT(V559D) (P10721 26-976 V559D): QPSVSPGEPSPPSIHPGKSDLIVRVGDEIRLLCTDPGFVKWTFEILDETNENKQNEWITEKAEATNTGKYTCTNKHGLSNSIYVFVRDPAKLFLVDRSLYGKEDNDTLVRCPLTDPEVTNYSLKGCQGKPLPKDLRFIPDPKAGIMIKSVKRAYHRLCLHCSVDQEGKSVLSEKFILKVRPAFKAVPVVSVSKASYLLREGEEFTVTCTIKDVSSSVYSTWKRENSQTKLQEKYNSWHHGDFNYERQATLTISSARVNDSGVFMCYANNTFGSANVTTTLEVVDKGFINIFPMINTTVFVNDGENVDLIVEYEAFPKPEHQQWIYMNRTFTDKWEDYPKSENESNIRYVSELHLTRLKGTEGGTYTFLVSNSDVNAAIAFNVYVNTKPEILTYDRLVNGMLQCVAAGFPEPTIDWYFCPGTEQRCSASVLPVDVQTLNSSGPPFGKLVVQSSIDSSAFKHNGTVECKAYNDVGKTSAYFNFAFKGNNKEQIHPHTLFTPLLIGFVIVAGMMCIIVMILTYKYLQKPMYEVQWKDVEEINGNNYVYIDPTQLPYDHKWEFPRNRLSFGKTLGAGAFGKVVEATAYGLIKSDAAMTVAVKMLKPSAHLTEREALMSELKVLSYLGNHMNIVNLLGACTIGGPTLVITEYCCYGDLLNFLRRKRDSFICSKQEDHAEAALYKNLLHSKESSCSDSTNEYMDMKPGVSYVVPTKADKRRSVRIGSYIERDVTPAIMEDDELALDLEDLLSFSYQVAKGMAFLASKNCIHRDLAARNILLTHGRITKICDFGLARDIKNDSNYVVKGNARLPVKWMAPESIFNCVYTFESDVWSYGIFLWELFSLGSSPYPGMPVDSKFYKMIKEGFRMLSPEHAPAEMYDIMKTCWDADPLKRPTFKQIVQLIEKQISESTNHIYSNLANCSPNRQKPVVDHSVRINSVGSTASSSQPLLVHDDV
Sequence of PFTAIRE1 (O94921 whole entry): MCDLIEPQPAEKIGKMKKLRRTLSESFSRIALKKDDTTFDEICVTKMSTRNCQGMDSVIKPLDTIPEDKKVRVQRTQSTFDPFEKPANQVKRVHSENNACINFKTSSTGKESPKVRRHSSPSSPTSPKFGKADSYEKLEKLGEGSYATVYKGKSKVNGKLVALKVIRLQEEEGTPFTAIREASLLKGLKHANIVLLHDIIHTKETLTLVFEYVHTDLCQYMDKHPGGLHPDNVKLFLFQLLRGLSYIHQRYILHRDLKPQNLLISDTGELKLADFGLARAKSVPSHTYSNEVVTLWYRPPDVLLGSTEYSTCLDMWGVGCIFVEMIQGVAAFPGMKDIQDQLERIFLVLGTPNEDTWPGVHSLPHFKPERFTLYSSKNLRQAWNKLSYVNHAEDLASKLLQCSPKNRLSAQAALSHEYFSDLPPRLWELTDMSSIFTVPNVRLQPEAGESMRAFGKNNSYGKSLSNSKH
Sequence of IRAK1 (P51617 whole entry, species assumed): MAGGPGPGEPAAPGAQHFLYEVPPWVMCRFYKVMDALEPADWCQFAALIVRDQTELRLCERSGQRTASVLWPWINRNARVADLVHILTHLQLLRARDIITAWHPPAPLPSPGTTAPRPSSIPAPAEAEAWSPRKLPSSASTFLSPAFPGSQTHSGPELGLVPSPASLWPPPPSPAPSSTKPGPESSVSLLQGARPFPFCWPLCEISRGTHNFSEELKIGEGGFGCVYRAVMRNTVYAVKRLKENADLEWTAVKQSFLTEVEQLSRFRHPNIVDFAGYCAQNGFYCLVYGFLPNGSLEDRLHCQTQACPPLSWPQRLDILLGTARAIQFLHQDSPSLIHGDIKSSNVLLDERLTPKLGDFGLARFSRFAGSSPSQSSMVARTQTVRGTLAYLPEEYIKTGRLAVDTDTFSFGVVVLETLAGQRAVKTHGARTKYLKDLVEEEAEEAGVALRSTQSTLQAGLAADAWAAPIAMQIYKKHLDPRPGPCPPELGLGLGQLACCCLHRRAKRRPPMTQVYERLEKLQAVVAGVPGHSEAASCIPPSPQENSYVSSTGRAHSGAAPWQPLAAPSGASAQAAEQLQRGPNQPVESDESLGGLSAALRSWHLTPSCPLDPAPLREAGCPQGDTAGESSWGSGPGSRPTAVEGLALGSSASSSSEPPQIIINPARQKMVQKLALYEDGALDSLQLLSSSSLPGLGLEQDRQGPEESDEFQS
Sequence of ZAK (Q9NYL2 whole entry): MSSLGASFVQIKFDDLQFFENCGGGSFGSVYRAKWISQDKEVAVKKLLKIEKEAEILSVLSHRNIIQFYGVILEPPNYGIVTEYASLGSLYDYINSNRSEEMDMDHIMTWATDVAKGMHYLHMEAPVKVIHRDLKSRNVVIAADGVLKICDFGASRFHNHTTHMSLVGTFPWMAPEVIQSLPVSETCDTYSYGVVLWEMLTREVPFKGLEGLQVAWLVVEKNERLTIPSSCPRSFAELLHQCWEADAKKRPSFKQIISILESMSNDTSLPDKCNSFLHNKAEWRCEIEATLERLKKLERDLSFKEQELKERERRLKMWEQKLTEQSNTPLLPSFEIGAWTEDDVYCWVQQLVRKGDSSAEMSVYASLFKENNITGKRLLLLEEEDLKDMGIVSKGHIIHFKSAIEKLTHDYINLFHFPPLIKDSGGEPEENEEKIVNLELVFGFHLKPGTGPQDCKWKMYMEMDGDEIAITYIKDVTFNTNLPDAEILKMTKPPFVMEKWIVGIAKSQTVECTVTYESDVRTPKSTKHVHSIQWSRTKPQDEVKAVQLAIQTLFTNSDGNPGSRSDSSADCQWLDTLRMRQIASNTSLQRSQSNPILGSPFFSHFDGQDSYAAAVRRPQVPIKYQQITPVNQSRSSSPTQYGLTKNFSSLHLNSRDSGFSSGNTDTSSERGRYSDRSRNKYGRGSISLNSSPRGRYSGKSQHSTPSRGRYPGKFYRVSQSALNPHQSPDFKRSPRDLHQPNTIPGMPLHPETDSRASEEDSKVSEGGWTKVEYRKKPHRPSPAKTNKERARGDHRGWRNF

| Compound | Percent inhibition of kinase labeling by ATP-biotin (ABL,ARG) | inhibition at 1 µM (ZAK) | inhibition at 1 µM (IRAK1) | Percent inhibition of kinase labeling by ATP-biotin (MAP2K1,MAP2K2) | inhibition at 1 µM (PFTAIRE1) | inhibition at 1 µM (PKD1) | Kd (KIT(V559D)) | Percent inhibition of kinase labeling by ATP-biotin (JNK1,JNK2,JNK3) | inhibition at 1 µM (IKKb) | inhibition at 1 µM (CDK9) | inhibition at 1 µM (PHKg2) | inhibition at 1 µM (MARK3) | Percent inhibition of kinase labeling by ATP-biotin (ZAK) | Percent inhibition of kinase labeling by ATP-biotin (IRAK1) | Percent inhibition of kinase labeling by ATP-biotin (PFTAIRE1) | Percent inhibition of kinase labeling by ATP-biotin (PKD1) | Percent inhibition of kinase labeling by ATP-biotin (IKKb) | Percent inhibition of kinase labeling by ATP-biotin (CDK9) | Percent inhibition of kinase labeling by ATP-biotin (PHKg2) | Percent inhibition of kinase labeling by ATP-biotin (MARK3) |
| --- | --- | --- | --- | --- | --- | --- | --- | --- | --- | --- | --- | --- | --- | --- | --- | --- | --- | --- | --- | --- |
| CN(C)C/C=C/C(=O)Nc1cccc(C(=O)Nc2ccc(Nc3nccc(-c4c(-c5ccccc5)nn5ccccc45)n3)cc2)c1 [JNK-IN-11] | 56.1% | 84.4% | 5.4% | −10.4% | 12.8% | 29.4% | 8.2 nM | 99.8% | -11.2% | -23.4% | -76% | -27.8% | – | – | – | – | – | – | – | – |
| CN(C)C/C=C/C(=O)Nc1cccc(C(=O)Nc2ccc(Nc3nccc(-c4cccnc4)n3)cc2)c1 [JNK-IN-7] | 1.9% | 15.5% | 81% | 3.2% | 75.3% | 2% | 48 nM | 99.7% | -10.1% | 16.6% | -7% | -13.5% | – | – | – | – | – | – | – | – |
| Cc1cc(NC(=O)c2cccc(NC(=O)/C=C/CN(C)C)c2)ccc1Nc1nccc(-c2cccnc2)n1 [JNK-IN-8] | −2.7% | -7.8% | 0.8% | 3.2% | 38.1% | 8.6% | 92 nM | 98.7% | -6.5% | -34.1% | -0.8% | -12% | – | – | – | – | – | – | – | – |
| CN(C)C/C=C/C(=O)Nc1cccc(C(=O)Nc2ccc(Nc3nccc(/C(C#N)=C4\Nc5ccccc5S4)n3)cc2)c1 [JNK-IN-12] | 7.9% | – | – | −3.7% | – | – | – | 98.6% | – | – | – | – | −40.2% | −14.9% | 25.7% | −21.6% | −97.5% | −35.3% | −94.1% | −67.9% |
| CCC(=O)Nc1cccc(C(=O)Nc2ccc(Nc3nccc(-c4cccnc4)n3)cc2)c1 [JNK-IN-6] | −1.4% | – | – | 24.3% | – | – | – | 27.3% | – | – | – | – | 3% | −4.6% | −6% | 28.7% | 33.4% | 7.6% | 28% | −7.3% |
